ChEMBL document CHEMBL1123279, “Beta 1-selective adrenoceptor antagonists: examples of the 2-[4-[3-(substituted amino)-2-hydroxypropoxy]phenyl]imidazole class. 2” (J Med Chem, 1986)
The source made the active and inactive calls. The rule behind the calls is not given here.

What was measured:
[1] = tested on: Rattus norvegicus; assay: Intrinsic sympathomimetic activity (ISA) measured as max. increase in heart rate over 60 min in reserpinized normotensive anesthetized rats at 1000 ug/kg iv; format: functional; set-up: unit not given here
[2] = Partition coefficient (logD7.4); format: physicochemical; conditions: octanol/water, pH 7.4
[3] = Dissociation constant (pKa); format: physicochemical
[4] = tested on: Rattus norvegicus; assay: Effective dose was evaluated following intravenous administration in reserpinized normotensive anesthetized rats; format: functional
[5] = tested on: Rattus norvegicus; assay: Intrinsic sympathomimetic activity (ISA) in the reserpinized normotensive anesthetized rats following intravenous administration at 1000 ug/kg; format: functional
[6] = biological target: Beta-1 adrenergic receptor (Cavia porcellus, UniProt B0FL73); assay: In vitro inhibitory activity against beta-1 adrenergic receptor was measured by the inhibition of the positive chronotropic effect of isoproterenolin in isolated guinea pig atria.; conditions: read-out: pA2 (converted)
[7] = tested on: Rattus norvegicus; assay: Intrinsic sympathomimetic activity (ISA) measured as max increase in heart rate over 60 min in the reserpinized normotensive anesthetized rats at 1000 ug/kg iv; format: functional
[8] = biological target: Beta-2 adrenergic receptor (Cavia porcellus) (UniProt Q8K4Z4)
Chain of Beta-2 adrenergic receptor (Cavia porcellus) (Q8K4Z4 whole entry, looked up): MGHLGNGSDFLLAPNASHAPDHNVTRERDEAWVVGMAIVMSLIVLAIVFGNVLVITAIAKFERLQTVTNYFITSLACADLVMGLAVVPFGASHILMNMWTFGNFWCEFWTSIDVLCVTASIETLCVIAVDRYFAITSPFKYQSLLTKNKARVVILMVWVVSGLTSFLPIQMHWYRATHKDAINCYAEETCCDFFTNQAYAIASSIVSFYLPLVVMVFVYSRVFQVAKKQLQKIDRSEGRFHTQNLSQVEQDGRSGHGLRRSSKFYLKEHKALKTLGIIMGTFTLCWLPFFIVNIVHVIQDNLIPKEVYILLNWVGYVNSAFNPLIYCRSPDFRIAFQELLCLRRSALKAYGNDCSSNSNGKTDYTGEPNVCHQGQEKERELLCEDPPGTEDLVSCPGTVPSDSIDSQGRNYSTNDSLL

Chain of Beta-1 adrenergic receptor (B0FL73 whole entry): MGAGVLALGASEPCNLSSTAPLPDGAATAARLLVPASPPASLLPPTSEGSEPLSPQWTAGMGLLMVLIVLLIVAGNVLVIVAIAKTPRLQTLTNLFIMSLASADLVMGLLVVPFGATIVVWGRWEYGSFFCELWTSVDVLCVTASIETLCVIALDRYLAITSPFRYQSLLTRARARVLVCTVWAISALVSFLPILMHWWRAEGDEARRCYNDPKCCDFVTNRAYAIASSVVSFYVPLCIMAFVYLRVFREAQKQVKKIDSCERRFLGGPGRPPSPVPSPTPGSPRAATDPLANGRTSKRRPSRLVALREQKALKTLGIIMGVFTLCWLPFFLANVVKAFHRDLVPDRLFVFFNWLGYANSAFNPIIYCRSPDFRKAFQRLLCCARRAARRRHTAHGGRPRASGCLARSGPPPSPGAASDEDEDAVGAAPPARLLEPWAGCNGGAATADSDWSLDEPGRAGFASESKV

Row | logD [2] | pKa [3] | Compound | Max increase [1] | also measured
1 | 2.31 | 3.3 | COc1ccc(CCNCC(O)COc2ccc(-c3nc(Br)c[nH]3)cc2Cl)cc1OC (stereo not drawn) | 48 | –
2 | 1.86 | 4.6 | CCOCCNC[C@H](O)COc1ccc(-c2nc(-c3cccs3)c[nH]2)cc1 | – | ED50 [4]: 0.0784 mg/kg
3 | 0.663 | 5.2 | COc1ccc(CCNCC(O)COc2ccc(OCc3ncc[nH]3)cc2)cc1OC (stereo not drawn) | – | –
4 | 0.215 | 3.54 | COc1ccc(CCNCC(O)COc2ccc(-c3nc(CN4CCOCC4)c[nH]3)cc2)cc1OC (stereo not drawn) | 30 | –
5 | 1.6 | 8.4 | COc1ccc(CCNCC(O)COc2ccc(-c3ncco3)cc2)cc1OC (stereo not drawn) | 19 | –
6 | 0.839 | 4.92 | COCc1[nH]c(-c2ccc(OCC(O)CNCCc3ccc(OC)c(OC)c3)cc2)nc1C (stereo not drawn) | – | –
7 | 1.53 | 5.45 | COc1ccc(CCNCC(O)COc2ccc(CCc3nc(-c4cccs4)c[nH]3)cc2)cc1OC (stereo not drawn) | 0 | –
8 | 1.41 | 4.79 | CCCNCC(O)COc1ccc(-c2nc(-c3cccs3)c[nH]2)cc1 (stereo not drawn) | – | –
9 | 1.58 | 4.99 | COc1ccc(CCNCC(O)COc2ccc(Cc3nc(-c4cccs4)c[nH]3)cc2)cc1OC (stereo not drawn) | 3 | –
10 | 1.61 | 3.48 | COc1ccc(CCNCC(O)COc2ccc(-c3nc(Cl)c[nH]3)cc2)cc1OC (stereo not drawn) | 42 | –
11 | 0.881 | 6.7 | COc1ccc(CCNCC(O)COc2ccc(-c3nccn3C)cc2)cc1OC.Cl.Cl (stereo not drawn) | 47 | –
12 | 0.301 | 3.95 | COc1ccc(CCNC[C@H](O)COc2ccc(Cc3nc(C(C)=O)c[nH]3)cc2)cc1OC | 0 | –
13 | 0.694 | 3.6 | COc1ccc(CCNC[C@H](O)COc2ccc(-c3nc(C(C)=O)c[nH]3)cc2)cc1OC | – | ED50 [4]: 0.0074 mg/kg
14 | 1.88 | 3.62 | COc1ccc(CCNCC(O)COc2ccc(-c3nc(C)c(Cl)[nH]3)cc2)cc1OC (stereo not drawn) | – | Max increase [5]: 19
15 | – | – | COc1ccc(CCNC[C@H](O)COc2ccc(-c3nc(-c4cccs4)c[nH]3)cc2)cc1OC.Cl.Cl | 19 | –
16 | 1.24 | 3.65 | COc1ccc(CCNCC(O)COc2ccc(-c3nc(Br)c[nH]3)cc2)cc1OC (stereo not drawn) | – | ED50 [4]: 0.0064 mg/kg
17 | 0.952 | 6.32 | CC(C)NCC(O)COc1ccc(-c2nc(C(C)C)c[nH]2)cc1 (stereo not drawn) | – | –
18 | 0.633 | 5.5 | COc1ccc(CCNCC(O)COc2ccc(COCc3ncc[nH]3)cc2)cc1OC (stereo not drawn) | 2 | –
19 | 1.9 | 3.8 | OC(CNCCc1ccncc1)COc1ccc(-c2nc(-c3cccs3)c[nH]2)cc1 (stereo not drawn) | – | ED50 [4]: 0.0654 mg/kg
20 | 0.279 | 3.6 | COc1ccc(CCNCC(O)COc2ccc(-c3nc(C(N)=O)c[nH]3)cc2)cc1OC (stereo not drawn) | 47 | –
21 | 0.204 | 3.75 | CC(C)NCC(O)COc1ccc(Cc2nc(Br)c[nH]2)cc1 (stereo not drawn) | 7 | Kb [6]: 3.16 nM
22 | 1.79 | 6.78 | COc1ccc(CCNCC(O)COc2ccc(-c3nc(C(C)C)c[nH]3)cc2)cc1OC (stereo not drawn) | 24 | –
23 | 1.28 | 4 | COc1ccc(CCNCC(O)COc2ccc(-c3nc(C(C)=O)c(C)[nH]3)cc2)cc1OC (stereo not drawn) | 24 | –
24 | 1.32 | 5.9 | COCCc1c[nH]c(-c2ccc(OCC(O)CNCCc3ccc(OC)c(OC)c3)cc2)n1 (stereo not drawn) | 75 | –

Row | logD [2] | pKa [3] | Compound | Max increase [1] | also measured
25 | -0.638 | 6.93 | Cc1c[nH]c(Cc2ccc(OCC(O)CNC(C)(C)C)cc2)n1 (stereo not drawn) | – | –
26 | 2.76 | 4.55 | COc1ccc(CCNCC(O)COc2ccc(-c3nc(-c4cccs4)c[nH]3)cc2C)cc1OC (stereo not drawn) | 21 | –
27 | 1.6 | 5.7 | COc1ccc(CCNCC(O)COc2ccc(-c3nc(C)c[nH]3)cc2Br)cc1OC (stereo not drawn) | – | –
28 | 1.41 | 3.8 | CCOC(=O)c1c[nH]c(-c2ccc(OCC(O)CNCCc3ccc(OC)c(OC)c3)cc2)n1 (stereo not drawn) | 60 | –
29 | -0.569 | 5.65 | CC(C)NCC(O)COc1ccc(-c2ncc[nH]2)cc1 (stereo not drawn) | 53 | –
30 | 0.312 | 5.25 | CCOCc1c[nH]c(-c2ccc(OCC(O)CNCCc3ccc(OC)c(OC)c3)cc2)n1 (stereo not drawn) | 27 | –
31 | 0.301 | 7.01 | COc1ccc(CCNCC(O)COc2ccc(Cc3nc(C)c[nH]3)cc2)cc1OC (stereo not drawn) | 0 | –
32 | 2.2 | 6.42 | COc1ccc(CCNC[C@H](O)COc2ccc(-c3nc(C(C)(C)C)c[nH]3)cc2)cc1OC | – | Max increase [7]: 21
33 | 1.02 | 6.72 | COc1ccc(CCNCC(O)COc2ccc(-c3nc(C)c(C)[nH]3)cc2)cc1OC (stereo not drawn) | 19 | –
34 | 1 | 3.65 | COc1ccc(CCNCC(O)COc2ccc(CCc3nc(Br)c[nH]3)cc2)cc1OC (stereo not drawn) | – | –
35 | 2.34 | 4.02 | COc1ccc(CCNCC(O)COc2ccc(-c3nc(-c4cccs4)c[nH]3)cc2Cl)cc1OC (stereo not drawn) | 19 | –
36 | 1.78 | 4.5 | CCOCCNCC(O)COc1ccc(-c2nc(-c3cccs3)c[nH]2)cc1 (stereo not drawn) | – | –
37 | 0.799 | 5.64 | COCc1c[nH]c(-c2ccc(OCC(O)CNCCc3ccc(OC)c(OC)c3)cc2)n1 (stereo not drawn) | 38 | pA2 [8]: Active
38 | – | – | COc1ccc(CCNCC(O)COc2ccc(-c3nc(-c4cccs4)c[nH]3)cc2)cc1OC (stereo not drawn) | – | ED50 [4]: 0.0479 mg/kg
39 | 0.778 | 5.75 | O=C(NCCNCC(O)COc1ccc(-c2ncc[nH]2)cc1)Nc1ccccc1 (stereo not drawn) | – | –
40 | 0 | 5.55 | COc1ccc(CCNCC(O)COc2ccc(-c3nc(CO)c[nH]3)cc2)cc1OC (stereo not drawn) | – | –
41 | 1.98 | 5.8 | COc1ccc(CCNCC(O)COc2ccc(-c3nc(Br)c(C)[nH]3)cc2)cc1OC (stereo not drawn) | – | Max increase [5]: 23
42 | 0.968 | 6.35 | COc1ccc(CCNCC(O)COc2ccc(-c3nc(C)c[nH]3)cc2OC)cc1OC (stereo not drawn) | – | –
43 | 0.505 | – | COc1ccc(CCNCC(O)COc2ccc(-c3nccs3)cc2)cc1OC (stereo not drawn) | 70 | –
44 | 1.18 | 4.9 | CC(C)NCC(O)COc1ccc(-c2nc(-c3cccs3)c[nH]2)cc1 (stereo not drawn) | – | –
45 | – | – | N#Cc1ccccc1OCC(O)CNCCNC(=O)Nc1ccccc1.O (stereo not drawn) | – | ED50 [4]: 0.0029 mg/kg
46 | 2.09 | 6.2 | COc1ccc(CCNCC(O)COc2ccc(-c3nc(C(C)(C)C)c[nH]3)cc2)cc1OC (stereo not drawn) | 48 | –
47 | 0.699 | 3.6 | CCCCNC(=O)NCCNCC(O)COc1ccc(-c2nc(C)c[nH]2)cc1 (stereo not drawn) | – | –
